Test results: ChEMBL document CHEMBL3885881, “DrugMatrix”

Organism: Rattus norvegicus
Test: DrugMatrix - Regimen: Daily Repeat
Type: toxicity, organism-based, Sprague-Dawley
Parameters: regimen Daily Repeat, gender Male, age 6-8 weeks
Settings: in vivo, po, route oral GAVAGE, vehicle 100 % WATER; for ABSOLUTE BASOPHIL / ABSOLUTE EOSINOPHIL / ABSOLUTE LYMPHOCYTE / ABSOLUTE MONOCYTE / ABSOLUTE SEGMENTED NEUTROPHIL / BASOPHIL / EOSINOPHIL / ERYTHROCYTE COUNT / HEMATOCRIT / HEMOGLOBIN / LEUKOCYTE COUNT / LYMPHOCYTE / MEAN CORPUSCULAR HEMOGLOBIN / MEAN CORPUSCULAR HEMOGLOBIN CONCENTRATION / MEAN CORPUSCULAR VOLUME / MONOCYTE / NEUTROPHIL / NUCLEATED RED BLOOD CELLS / PLATELET COUNT: tissue Blood; for ALANINE AMINOTRANSFERASE / ALBUMIN / ALKALINE PHOSPHATASE / ASPARTATE AMINOTRANSFERASE / BLOOD UREA NITROGEN / CARBON DIOXIDE / CHLORIDE / CHOLESTEROL / CREATINE PHOSPHOKINASE / CREATININE / GLUCOSE / LACTATE DEHYDROGENASE / LIPASE / PHOSPHORUS / POTASSIUM / SODIUM / TOTAL BILIRUBIN / TOTAL PROTEIN / URIC ACID: tissue Plasma
[1] = 500 mg/kg, 120 h, dose level Low, time 5 day
[2] = 2000 mg/kg, 72 h, dose level High, time 3 day
[3] = 2000 mg/kg, 120 h, dose level High, time 5 day

NCCCCCC(=O)O [AMINOCAPROIC ACID]
ABSOLUTE BASOPHIL [1]: 0 CELLS/uL
ABSOLUTE EOSINOPHIL [1]: 0 CELLS/uL
ABSOLUTE LYMPHOCYTE [1]: 13712 CELLS/uL
ABSOLUTE MONOCYTE [1]: 316 CELLS/uL
ABSOLUTE SEGMENTED NEUTROPHIL [1]: 872 CELLS/uL
BASOPHIL [1]: 0%
EOSINOPHIL [1]: 0%
ERYTHROCYTE COUNT [1]: 5.42 x10E6/uL
HEMATOCRIT [1]: 34.37%
HEMOGLOBIN [1]: 13.87 G/DL
LEUKOCYTE COUNT [1]: 14.9 x10E3/uL
LYMPHOCYTE [1]: 92.33%
MEAN CORPUSCULAR HEMOGLOBIN [1]: 25.67 pg
MEAN CORPUSCULAR HEMOGLOBIN CONCENTRATION [1]: 40.37 G/DL
MEAN CORPUSCULAR VOLUME [1]: 63.53 fL
MONOCYTE [1]: 2%
NEUTROPHIL [1]: 5.67%
NUCLEATED RED BLOOD CELLS [1]: 0 /100WBC
PLATELET COUNT [1]: 1257.67 x10E3/uL
ALANINE AMINOTRANSFERASE [1]: 51.33 u/L
ALBUMIN [1]: 4.4 G/DL
ALKALINE PHOSPHATASE [1]: 417.33 u/L
ASPARTATE AMINOTRANSFERASE [1]: 75.67 u/L
BLOOD UREA NITROGEN [1]: 15.33 mg/dL
CARBON DIOXIDE [1]: 26.67 mmol/L
CHLORIDE [1]: 101.67 MEQ/L
CHOLESTEROL [1]: 72.67 mg/dL
CREATINE PHOSPHOKINASE [1]: 253.67 u/L
CREATININE [1]: 0.15 mg/dL
GLUCOSE [1]: 153.33 mg/dL
LACTATE DEHYDROGENASE [1]: 102.33 u/L
LIPASE [1]: 9 u/L
PHOSPHORUS [1]: 11.07 mg/dL
POTASSIUM [1]: 6.75 MEQ/L
SODIUM [1]: 143.73 MEQ/L
TOTAL BILIRUBIN [1]: 0.2 mg/dL
TOTAL PROTEIN [1]: 6.1 G/DL
URIC ACID [1]: 1.57 mg/dL
ABSOLUTE BASOPHIL [2]: 0 CELLS/uL
ABSOLUTE EOSINOPHIL [2]: 99.33 CELLS/uL
ABSOLUTE LYMPHOCYTE [2]: 12832.33 CELLS/uL
ABSOLUTE MONOCYTE [2]: 0 CELLS/uL
ABSOLUTE SEGMENTED NEUTROPHIL [2]: 1535 CELLS/uL
BASOPHIL [2]: 0%
EOSINOPHIL [2]: 0.67%
ERYTHROCYTE COUNT [2]: 5.61 x10E6/uL
HEMATOCRIT [2]: 36.13%
HEMOGLOBIN [2]: 14.13 G/DL
LEUKOCYTE COUNT [2]: 14.47 x10E3/uL
LYMPHOCYTE [2]: 88.67%
MEAN CORPUSCULAR HEMOGLOBIN [2]: 25.17 pg
MEAN CORPUSCULAR HEMOGLOBIN CONCENTRATION [2]: 39.1 G/DL
MEAN CORPUSCULAR VOLUME [2]: 64.4 fL
MONOCYTE [2]: 0%
NEUTROPHIL [2]: 10.67%
NUCLEATED RED BLOOD CELLS [2]: 0.33 /100WBC
PLATELET COUNT [2]: 1333.33 x10E3/uL
ALANINE AMINOTRANSFERASE [2]: 41.67 u/L
ALBUMIN [2]: 4.27 G/DL
ALKALINE PHOSPHATASE [2]: 386.67 u/L
ASPARTATE AMINOTRANSFERASE [2]: 89 u/L
BLOOD UREA NITROGEN [2]: 18 mg/dL
CARBON DIOXIDE [2]: 22.67 mmol/L
CHLORIDE [2]: 103 MEQ/L
CHOLESTEROL [2]: 61.33 mg/dL
CREATINE PHOSPHOKINASE [2]: 502 u/L
CREATININE [2]: 0.2 mg/dL
GLUCOSE [2]: 180 mg/dL
LACTATE DEHYDROGENASE [2]: 295 u/L
LIPASE [2]: 11 u/L
PHOSPHORUS [2]: 11.37 mg/dL
POTASSIUM [2]: 5.97 MEQ/L
SODIUM [2]: 144.2 MEQ/L
TOTAL BILIRUBIN [2]: 0.27 mg/dL
TOTAL PROTEIN [2]: 5.77 G/DL
URIC ACID [2]: 1.03 mg/dL
ABSOLUTE BASOPHIL [3]: 0 CELLS/uL
ABSOLUTE EOSINOPHIL [3]: 109 CELLS/uL
ABSOLUTE LYMPHOCYTE [3]: 13720 CELLS/uL
ABSOLUTE MONOCYTE [3]: 222 CELLS/uL
ABSOLUTE SEGMENTED NEUTROPHIL [3]: 1882.33 CELLS/uL
BASOPHIL [3]: 0%
EOSINOPHIL [3]: 0.67%
ERYTHROCYTE COUNT [3]: 5.57 x10E6/uL
HEMATOCRIT [3]: 34.6%
HEMOGLOBIN [3]: 13.8 G/DL
LEUKOCYTE COUNT [3]: 15.93 x10E3/uL
LYMPHOCYTE [3]: 86.33%
MEAN CORPUSCULAR HEMOGLOBIN [3]: 24.83 pg
MEAN CORPUSCULAR HEMOGLOBIN CONCENTRATION [3]: 39.87 G/DL
MEAN CORPUSCULAR VOLUME [3]: 62.2 fL
MONOCYTE [3]: 1.33%
NEUTROPHIL [3]: 11.67%
NUCLEATED RED BLOOD CELLS [3]: 0 /100WBC
PLATELET COUNT [3]: 1463.33 x10E3/uL
ALANINE AMINOTRANSFERASE [3]: 41.67 u/L
ALBUMIN [3]: 4.27 G/DL
ALKALINE PHOSPHATASE [3]: 291 u/L
ASPARTATE AMINOTRANSFERASE [3]: 77 u/L
BLOOD UREA NITROGEN [3]: 17.67 mg/dL
CARBON DIOXIDE [3]: 25.33 mmol/L
CHLORIDE [3]: 101 MEQ/L
CHOLESTEROL [3]: 60.67 mg/dL
CREATINE PHOSPHOKINASE [3]: 281 u/L
CREATININE [3]: 0.15 mg/dL
GLUCOSE [3]: 157.33 mg/dL
LACTATE DEHYDROGENASE [3]: 298.67 u/L
LIPASE [3]: 9.33 u/L
PHOSPHORUS [3]: 10.73 mg/dL
POTASSIUM [3]: 6.02 MEQ/L
SODIUM [3]: 141.63 MEQ/L
TOTAL BILIRUBIN [3]: 0.17 mg/dL
TOTAL PROTEIN [3]: 6.07 G/DL
URIC ACID [3]: 0.8 mg/dL
